The values below come from patent US20240325420A1, “COMPOSITION INCLUDING PAEONIFLORIN FOR PREVENTION OR TREATMENT OF CACHEXIA AND MUSCLE LOSS” (CHUNG ANG UNIVERSITY INDUSTRY ACADEMIC COOPERATION …, priority 2021, published 2024).

The test system of assay [1] is GDF-15. The assay is described as follows: Plasma GDF-15 by ELISA in mice with cisplatin-induced cachexia. As to conditions: C57B/6 mice; cisplatin plus paeoniflorin-treated group vs cisplatin-treated group; FIG. 13B. It is filed as in vivo. How it is done:
In addition, cisplatin-treated mice orally administered the same volume of distilled water were designated as the vehicle group. After completion of drug treatment, the mice of each group were euthanized with 10 mg/kg alfaxalone (Jurox, Rutherford, Australia). Blood was collected in test tubes containing EDTA, and centrifuged, and plasma was separated therefrom. Gastrocnemius and quadriceps skeletal muscles were dissected and weighed. The skeletal muscles were rapidly frozen in liquid nitrogen to be used for RT-qPCR, Western blotting, and ELISA.
The levels of TNF-α and interleukin (IL)-6 were measured using respective mouse ELISA kits (Invitrogen, Waltham, MA, USA). IL-1β and GDF-15 levels were measured using respective Quantikine ELISA kits (R&D Systems, Minneapolis, MN, USA).
The protein concentration of GDF-15 in the plasma was analyzed by ELISA.

For assay [2], the system named is C57BL/6 mice with Lewis lung carcinoma-induced cachexia. Nature of the assay: Body weight and muscle mass in C57BL/6 mice with Lewis lung carcinoma-induced cachexia. The format is in vivo. How it is done: (§1) As the experimental animals, 4-week-old female C57BL/6 mice and Balb/c mice weighing 18 g to 20 g were purchased from Raon Bio (Yongin, Korea), acclimatized in the laboratory animal facility for one week, and then used in the experiment. During the experiment period, the animals were provided with solid feed and water ad libitum, and the breeding room was maintained at a temperature of 20° C. to 24° C. and a relative humidity of 55% to 65% with a 12-hr light/12-hr dark cycle.
(§2) Mice were divided into a control group and a cachexia-induced group, and the cachexia-induced group was subdivided into a tumor cell-injected group, a tumor cell-injected and existing drug (MA, megestrol acetate)-administered group, and tumor cell-injected and paeoniflorin (Pae)-administered groups. Each group consisted of 10 animals.
Each mouse of the control group was injected subcutaneously with 100 μL of saline solution. For the cachexia-induced groups, Lewis lung carcinoma cells (C57BL/6 mice) or colon-26 carcinoma cells (Balb/c mice) were injected subcutaneously into the flank area of each mouse at a dose of 10^6 cells/100 μL/mouse. After 2 weeks, when a distinct tumor was formed, the tumor cell-injected group was orally administered distilled water, the tumor cell-injected and existing drug-administered group was orally administered megestrol acetate (MA), which is currently most commonly prescribed for cancer cachexia patients in clinical practice, at a dose of 160 mg/kg (=800 mg [daily human dose]/60 kg [average human body weight]×12 [dose equivalent factor based on human:mouse body surface area ratio], once daily for 9 days, and the tumor cell-injected and paeoniflorin-administered groups were orally administered paeoniflorin (prepared in Example 1) once daily for 9 days at doses of 5 (Pae 5 group), 10 (Pae 10 group) and 20 (Pae 20 group) mg/kg, respectively. After completion of 9 days of administration, the muscle strength of the mice was measured using a grip strength test device (Bioseb, USA), and the endurance of the mice was measured using a treadmill device (Columbus Instrument, USA).
(§3) After completion of the experiment, the mice were euthanized, blood was collected therefrom, the body weight excluding tumors, and the weights of the hind limb gastrocnemius muscle and quadriceps muscle were measured. GDF-15 in the serum was quantified by ELISA.

In assay [3] the test system is Balb/c mice with colon-26 carcinoma-induced cachexia. Nature of the assay: Body weight and muscle mass in Balb/c mice with colon-26 carcinoma-induced cachexia. Particulars: colon-26 carcinoma-injected, paeoniflorin orally once daily for 9 days vs colon-26 carcinoma-injected group. It is filed as in vivo. How it is done:
as §1, §2
(§4) Each mouse of the control group was injected subcutaneously with 100 μL of saline solution. For the cachexia-induced groups, Lewis lung carcinoma cells (C57BL/6 mice) or colon-26 carcinoma cells (Balb/c mice) were injected subcutaneously into the flank area of each mouse at a dose of 10^6 cells/100 μL/mouse. […] After completion of 9 days of administration, the muscle strength of the mice was measured using a grip strength test device (Bioseb, USA), and the endurance of the mice was measured using a treadmill device (Columbus Instrument, USA).
as §3

Assay [4] has as its system C2C12 myoblasts. The assay is described as follows: Myotube differentiation of C2C12 myoblasts. The format is cell-based. How it is done:
C2C12 myoblasts were purchased from ATCC (Manassas, Virginia, USA) and cultured using DMEM containing 10% fetal bovine serum. After the cells reached 70% confluence, myotube differentiation was induced while the medium was replaced with DMEM containing 2% horse serum every two days. A negative control group was treated with […] of TNF-α, which inhibits myotube differentiation. While the myoblasts were treated with paeoniflorin at a concentration of 50 to 200 μM along with TNF-α, the degree of myotube differentiation was observed and the length of differentiated myotubes was measured using the Image J program.

Assay [5] deals with C57BL/6 mice with Lewis lung carcinoma-induced cachexia. Nature of the assay: Muscle strength and endurance in C57BL/6 mice with Lewis lung carcinoma-induced cachexia. It is filed as in vivo. How it is done: as §1, §2, §4
The mark [6] stands for this setting: Lewis lung carcinoma C57BL/6 mice, paeoniflorin 10 to 20 mg/kg/day vs megestrol acetate 160 mg/kg/day.

For `C[C@@]12C[C@@]3(O)O[C@@H](O1)[C@]1(COC(=O)c4ccccc4)[C@H]3C[C@@]12O[C@@H]1O[C@H](CO)[C@@H](O)[C@H](O)[C@H]1O` [paeoniflorin], the “plasma concentration of GDF-15” value in assay [1] was “significantly decreased”. Besides, the body weight entry is recorded as “significantly increased” in assay [2] (C57BL/6 mice, Lewis lung carcinoma-injected, paeoniflorin orally once daily for 9 days vs Lewis lung carcinoma-injected group, FIG. 14A) and “significantly increased” in assay [3] (FIG. 15A). For the same compound, the “weight of gastrocnemius muscle” value was “significantly increased” in assay [2] (C57BL/6 mice, Lewis lung carcinoma-injected, paeoniflorin orally once daily for 9 days vs Lewis lung carcinoma-injected group, FIG. 14B) and “significantly increased” in assay [3] (FIG. 15B). The “weight of quadriceps muscle” value in assay [2] (C57BL/6 mice, Lewis lung carcinoma-injected, paeoniflorin orally once daily for 9 days vs Lewis lung carcinoma-injected group, FIG. 14C) is on record as “significantly increased”; in assay [3] (FIG. 15C) it was “significantly increased”. Also, the “effect on body weight and muscle mass compared with megestrol acetate (MA)” value in assay [2] (setting [6]) is reported as “better effect”. Moreover, the myotube differentiation result in assay [4] (paeoniflorin 50 to 200 μM along with TNF-α, FIG. 19) is on record as “promoted”. Moreover, the myotube length entry in assay [4] (paeoniflorin-treated groups vs negative control group (TNF-α+Pae 0 μM), FIG. 20) was “significantly increased”. For the same compound, the muscle strength entry in assay [5] (C57BL/6 mice, Lewis lung carcinoma-injected, paeoniflorin orally for 9 days, FIG. 16A) was “significantly increased”. Further, in assay [5] (C57BL/6 mice, Lewis lung carcinoma-injected, paeoniflorin orally for 9 days, FIG. 16B), the endurance result is recorded as “significantly increased”. For the same compound, the “effect on muscle function compared with megestrol acetate (MA)” value in assay [5] (setting [6]) is given as “better effect”.
